Experimental data from publication PMC11156913, “New sulfonamide-based glycosides incorporated 1,2,3-triazole as cytotoxic agents through VEGFR-2 and carbonic anhydrase inhibitory activity” (Scientific Reports, 2024).
Like-named read-outs stand apart in the source and are kept apart here.

How the values were obtained:
[1] = test system: liver HepG-2 cancer cell line; experiment: In vitro cytotoxic activity (MTT assay), HepG-2; conditions: for IC50: Homo sapiens, HepG2, read-out: IC50 (mean ± SD) HepG-2
Source text: (§1) The supplemental file contained extra details.

[2] = test system: breast MCF-7 cancer cell line; experiment: In vitro cytotoxic activity (MTT assay), MCF-7; type: cell-based, human; conditions: for inhibition at 100 µM / IC50: Homo sapiens; for inhibition at 100 µM: read-out: % inhibition ± SD MCF-7; for IC50: MCF-7 cells, MTT, read-out: IC50 (mean ± SD) MCF-7
Source text: as §1

[3] = test system: colorectal HCT-116 cancer cell line; experiment: In vitro cytotoxic activity (MTT assay), HCT-116; type: cell-based, human; conditions: for inhibition at 100 µM: read-out: % inhibition ± SD HCT-116
Source text: as §1

[4] = test system: lung A-549 cancer cell line; experiment: In vitro cytotoxic activity (MTT assay), A-549; conditions: Homo sapiens; for inhibition at 100 µM: A549, 48 h, read-out: % inhibition ± SD A-549
Procedure: Exponentially, cells were placed in 10^4 cells/ well for 24 h, and then add fresh medium which containing different concentration of the tested sample. Serial two-fold dilution of the tested sample were added using a multichannel pipette. […] Rinse the wells using water until no stain. After that, add 30% glacial acetic acid to all wells with shaking plates on Microplate reader (TECAN, Inc.) to measure the absorbance, using a test wavelength of 490 nm. Besides, compare the treated samples with the control cell.

[5] = Homo sapiens, HCT-116, 100 µM, 48 h

Row | melting point [°C] | Structure (SMILES) | percentage cytotoxicity on HepG-2 ([1]; 12.5 µM) [%] | percentage cytotoxicity on HepG-2 ([1]; 25 µM) [%] | percentage cytotoxicity on HepG-2 ([1]; 50 µM) [%] | percentage cytotoxicity on HepG-2 ([1]; 100 µM) [%] | IC50 [1] [µM] | inhibition at 100 µM ([2]; MCF7, 100 µM, 48 h) [%] | inhibition at 100 µM [3, 5] [%] | inhibition at 100 µM [4] [%] | IC50 ([2]; MCF7) [µM] | also measured
1 | 118 to 120 | O=S(=O)(NC1CCCCC1)c1ccc(-n2cc(CO[C@@H]3O[C@H](CO)[C@H](O)[C@H](O)[C@H]3O)nn2)cc1 [Compound 11, N-cyclohexyl-4-(4-([β-D-galactopyranosyl]oxymethyl)-1H-1,2,3-triazol-1-yl)benzenesulfonamide] | 44.80±0.50 | 57.70±0.87 | 62.70±0.36 | 73.85±1.06 | 16.9 ± 0.09 | 20.8 ± 0.79 | 39 ± 0.96 | 30.1 ± 0.62 |  | 
2 | 160 to 162 | O=S(=O)(NC1CCCCC1)c1ccc(-n2cc(CO[C@@H]3OC[C@@H](O)[C@H](O)[C@H]3O)nn2)cc1 [Compound 13, N-cyclohexyl-4-(4-([β-D-Xylopyranosyl]oxymethyl)-1H-1,2,3-triazol-1-yl)benzenesulfonamide] | 43.30±0.66 | 38.80±0.40 | 56.20±1.29 | 75.10±0.12 | 30.01 ± 0.06 | 71.43 ± 0.03 | 70.1 ± 1.05 | 54.6 ± 0.97 | 30.83 ± 0.2 | percentage cytotoxicity on MCF-7 ([2]; 12.5 µM): 34.87±5.91%; percentage cytotoxicity on MCF-7 ([2]; 25 µM): 48.07±4.31%; percentage cytotoxicity on MCF-7 ([2]; 50 µM): 54.73±1.88%; percentage cytotoxicity on MCF-7 ([2]; 100 µM): 71.43±2.03%; percentage cytotoxicity on HCT-116 ([3]; 12.5 µM): 11.00±0.65%; percentage cytotoxicity on HCT-116 ([3]; 25 µM): 28.51±0.69%; percentage cytotoxicity on HCT-116 ([3]; 50 µM): 47.00±0.79%; percentage cytotoxicity on HCT-116 ([3]; 100 µM): 70.10±1.05%; IC50 ([3]; Homo sapiens, HCT-116 cells, MTT, read-out: IC50 (mean ± SD) HCT-116): 53.1 ± 0.69 µM
3 |  | COc1cccc2c1C(=O)c1c(O)c3c(c(O)c1C2=O)C[C@@](O)(C(=O)CO)C[C@@H]3O[C@H]1C[C@H](N)[C@H](O)[C@H](C)O1 [Doxorubicin, reference compound] |  |  |  |  | 13.8 ± 0.45 | 100 ± 0.08 | 100 ± 0.25 | 100 ± 0.2 | 17.4 ± 0.46 | 
4 |  | CCN(CC)CCNC(=O)c1c(C)[nH]c(/C=C2\C(=O)Nc3ccc(F)cc32)c1C [Sunitinib, reference compound] |  |  |  |  |  |  |  |  |  | IC50 ([4]; A549, read-out: IC50 (mean ± SD) A-549): 10.1 ± 0.5 µM

Row | Structure (SMILES) | melting point [°C] | percentage cytotoxicity on HepG-2 ([1]; 12.5 µM) [%] | percentage cytotoxicity on HepG-2 ([1]; 25 µM) [%] | percentage cytotoxicity on HepG-2 ([1]; 50 µM) [%] | percentage cytotoxicity on HepG-2 ([1]; 100 µM) [%] | IC50 [1] [µM] | inhibition at 100 µM ([2]; MCF7, 100 µM, 48 h) [%] | inhibition at 100 µM [3, 5] [%] | inhibition at 100 µM [4] [%] | IC50 ([2]; MCF7) [µM] | also measured
5 | CCCCNS(=O)(=O)c1ccc(-n2cc(CO[C@@H]3OC[C@@H](O)[C@H](O)[C@H]3O)nn2)cc1 [Compound 12, N-butyl-4-(4-([β-D-Xylopyranosyl]oxymethyl)-1H-1,2,3-triazol-1-yl)benzenesulfonamide] | 150 to 152 | 33.95±0.33 | 44.70±1.13 | 55.95±0.44 | 62.86±1.19 | 36.44 ± 0.12 |  |  | 17.8 ± 0.95 |  | inhibition at 100 µM ([2]; MCF7, 48 h): 41.4 ± 0.91%; inhibition at 100 µM ([3]; Homo sapiens, HCT-116, 48 h): 0%
